Publication PMC8449414, “Rational design of ASCT2 inhibitors using an integrated experimental-computational approach” (Proceedings of the National Academy of Sciences of the …, 2021)

Target: T1, rASCT2 (Rattus norvegicus, UniProt D3ZJ25)
T1 construct: expressed in transfected cells; host or cells: HEK293 (ATCC CRL-11268), transient transfection
T1 sequence (D3ZJ25 1-555): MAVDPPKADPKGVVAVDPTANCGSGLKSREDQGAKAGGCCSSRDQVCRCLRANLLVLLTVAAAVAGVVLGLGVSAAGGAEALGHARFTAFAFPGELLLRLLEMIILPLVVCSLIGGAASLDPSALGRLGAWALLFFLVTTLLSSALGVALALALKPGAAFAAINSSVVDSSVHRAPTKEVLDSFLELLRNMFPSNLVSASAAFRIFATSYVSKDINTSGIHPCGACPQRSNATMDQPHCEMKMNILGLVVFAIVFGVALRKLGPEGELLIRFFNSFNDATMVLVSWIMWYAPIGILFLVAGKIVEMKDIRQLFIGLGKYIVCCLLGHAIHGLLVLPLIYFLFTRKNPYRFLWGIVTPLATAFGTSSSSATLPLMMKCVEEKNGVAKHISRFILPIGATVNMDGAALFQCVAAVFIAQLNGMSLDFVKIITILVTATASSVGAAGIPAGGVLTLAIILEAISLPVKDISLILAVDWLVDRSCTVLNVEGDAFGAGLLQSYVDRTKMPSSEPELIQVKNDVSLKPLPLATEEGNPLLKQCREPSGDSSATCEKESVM
Assay: Inhibitor dissociation kinetics by ligand displacement with alanine (rapid solution exchange)
Assay type: cell-based
Experimental: Fig. 2. […] (A) Electrophysiological recordings obtained after application of alanine (red trace) and increasing concentrations of Lc-BPE (black traces). The times of application of alanine or Lc-BPE are shown by a gray bar (top). (B and C) Lc-BPE inhibitor dose–response relationships for rASCT2 and hASCT2, respectively. […] Currents were normalized to the current recorded after application of 10 µM inhibitor concentration. (D) Inhibition of glutamine uptake (5 µM external concentration) in the presence of varying concentration of Lc-BPE and 5 µM glutamine measured in proteoliposomes reconstituted with purified hASCT2. […] Errors bars represent SEM from at least two biologically independent measurements. (E) Current recorded after rapid solution exchange from extracellular buffer (control, gray bar, black trace) to a solution containing buffer + 5 mM alanine (white bar). For the red trace, the cell was preincubated with 10 µM Lc-BPE (red bar, red trace) followed by rapid application of 5 mM alanine. All current recordings were performed at 0 mV in the presence of 130 mM NaSCN internal and 140 mM NaCl external (homoexchange) solutions. […]
To test this, we measured the dissociation kinetics of Lc-BPE using a ligand displacement approach. First, rASCT2-expressing cells were preincubated with a saturating solution of Lc-BPE (10 µM), and subsequently the inhibitor was displaced using a supersaturating concentration of the substrate L-alanine (5 mM) (Fig. 2 E and F).

[1] = preincubation with 10 µM inhibitor, displaced with 5 mM alanine

O=C(O[C@@H]1CN[C@H](C(=O)O)C1)c1ccc(-c2ccccc2)cc1 [Lc-BPE, L-cis hydroxyproline biphenyl ester]
slowing of activation of the anion current by alanine after preincubation (10 µM inhibitor preincubation, 5 mM alanine): more than sixfold
rate constant kobs, mean (single-exponential fit) (preapplied 10 µM inhibitor followed by 5 mM alanine, 0 mV): 4.9 ± 0.2 s⁻¹
rate constant for dissociation [1]: 2.16 s⁻¹
residence time in the rASCT2 binding site [1]: ~500 ms
